Where a SMILES comes first, the peptide text is derived from it. Bridges are numbered along the chain shown (N, C = ends). [ ]: non-standard residue; d: D form. Cha = N[C@@H](CC1CCCCC1)C(=O)O; aThr = C[C@H](O)[C@H](N)C(=O)O; Tle = CC(C)(C)[C@H](N)C(=O)O; dDab = NCC[C@@H](N)C(=O)O; dPip = O=C(O)[C@H]1CCCCN1; Orn = NCCC[C@H](N)C(=O)O; Dab = NCC[C@H](N)C(=O)O; Dap = NC[C@H](N)C(=O)O
How the values were obtained:
Format in all cases: cell-based
[1] = test system: Acinetobacter baumannii 872842; settings: 872842
[2] = test system: Acinetobacter baumannii DSM 30008; settings: DSM 30008
Outline: (§1)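 Peptide MICs were determined by CLSI broth microdilution in cation-adjusted Mueller-Hinton II broth with 0.002% polysorbate 80, inoculum approx. 10^6 CFU/mL. Two-fold serial dilutions of peptide were tested. MIC was the lowest concentration (μg/mL) with no visible growth after 18-20 hours at 35° C.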

Escherichia coli 926415 = settings: 926415
[3] = test system: Escherichia coli ATCC 25922; settings: ATCC 25922
Outline: as §1

[4] = test system: Klebsiella pneumoniae 968733; settings: 968733
[5] = test system: Klebsiella pneumoniae SSI #3010; settings: SSI #3010
Outline: as §1

[6] = test system: Pseudomonas aeruginosa ATCC 27853; settings: ATCC 27853
Outline: as §1

[7] = test system: human red blood cells (hRBC); experiment: Hemolysis of human red blood cells; settings: red cells of human, 1 h, 100 μg/mL
Outline: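 Peptides at 100 μg/mL were incubated with PBS-washed fresh human erythrocytes (20% v/v, ~0.9×10^9 cells/mL final) for 1 h at 37° C. with shaking. Supernatant OD540 was read after 8-fold dilution; percent hemolysis was expressed relative to the 2.5% Triton X-100 full-lysis control, with PBS/0.001% acetic acid as 0%.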

Compound	Acinetobacter baumannii 872842 MIC [1]	Acinetobacter baumannii DSM 30008 MIC [2]	Escherichia coli 926415 MIC (Escherichia coli 926415)	Escherichia coli ATCC 25922 MIC [3]	Klebsiella pneumoniae 968733 MIC [4]	Klebsiella pneumoniae SSI #3010 MIC [5]	Pseudomonas aeruginosa ATCC 27853 MIC [6]	Hemolysis at 100 μg/mL [7]
CC(=O)N[C@@H](Cc1c[nH]c2ccccc12)C(=O)N[C@H]1CSSC[C@@H](C(=O)N[C@@H](CCCN)C(=O)N[C@@H](CCN)C(=O)N[C@@H](CCN)C(=O)N[C@H]2CCNC(=O)[C@H]([C@@H](C)O)NC(=O)[C@H](CCN)NC(=O)[C@H](CCN)NC(=O)[C@H](CC(C)C)NC(=O)[C@@H](Cc3ccccc3)NC(=O)[C@H](CCN)NC2=O)NC(=O)[C@H](Cc2ccc(O)cc2)NC(=O)[C@H](CO)NC(=O)[C@H](CC(C)C)NC(=O)[C@@H]2CCCN2C(=O)[C@H]2CCCN2C(=O)[C@H](CO)NC(=O)[C@@H](C)NC(=O)[C@H](C(C)(C)C)NC1=O [Ex. 112] (Ac-WC[Tle][dA]S[dP]PLSYC[Orn][Dab][Dab][Dab][Dab][dF]L[Dab][Dab]T; disulfide 2-11; lactam 15-C)	1 µg/mL	1 µg/mL	1 µg/mL	1 µg/mL	0.5 µg/mL	0.5 µg/mL	4 µg/mL	1%
CC(=O)N[C@@H](Cc1c[nH]c2ccccc12)C(=O)N[C@H]1CSSC[C@@H](C(=O)N[C@@H](CCCN)C(=O)N[C@H](C(=O)N[C@@H](CCN)C(=O)N[C@H]2CCNC(=O)[C@H]([C@@H](C)O)NC(=O)[C@H](CCN)NC(=O)[C@H](CCN)NC(=O)[C@H](CC(C)C)NC(=O)[C@@H](Cc3ccccc3)NC(=O)[C@H](CCN)NC2=O)[C@@H](C)O)NC(=O)[C@H](CC2CCCCC2)NC(=O)[C@H](Cc2c[nH]cn2)NC(=O)[C@H](CC(C)C)NC(=O)[C@@H]2CCCN2C(=O)[C@H]2CCCN2C(=O)[C@H]([C@H](C)O)NC(=O)[C@H](C)NC(=O)[C@H](C(C)(C)C)NC1=O [Ex. 113] (Ac-WC[Tle]A[aThr][dP]PLH[Cha]C[Orn]T[Dab][Dab][Dab][dF]L[Dab][Dab]T; disulfide 2-11; lactam 15-C)	0.25 µg/mL	1 µg/mL	0.5 µg/mL	1 µg/mL	4 µg/mL	2 µg/mL	1 µg/mL	5%
CC(C)C[C@@H]1NC(=O)[C@@H](Cc2ccccc2)NC(=O)[C@H](CCN)NC(=O)[C@@H](NC(=O)[C@H](CCN)NC(=O)[C@@H](NC(=O)[C@H](CCN)NC(=O)[C@@H]2CSSC[C@H](NC(=O)[C@@H](N)Cc3c[nH]c4ccccc34)C(=O)N[C@@H](C(C)(C)C)C(=O)N[C@@H](C)C(=O)N[C@@H](CO)C(=O)N3CCCC[C@@H]3C(=O)N3CCC[C@H]3C(=O)N[C@@H](CC(C)C)C(=O)N[C@@H](CO)C(=O)N[C@@H](Cc3ccc(O)cc3)C(=O)N2)[C@@H](C)O)CCNC(=O)[C@H]([C@@H](C)O)NC(=O)[C@H](CCN)NC(=O)[C@H](CCN)NC1=O [Ex. 114] (H-WC[Tle]AS[dPip]PLSYC[Dab]T[Dab][Dab][Dab][dF]L[Dab][Dab]T; disulfide 2-11; lactam 15-C)	0.125 µg/mL	0.5 µg/mL	0.0625 µg/mL	0.125 µg/mL	0.5 µg/mL	0.25 µg/mL	0.5 µg/mL	6%
CC(=O)N[C@@H](Cc1c[nH]c2ccccc12)C(=O)N[C@H]1CSSC[C@@H](C(=O)N[C@@H](CCN)C(=O)N[C@@H](CCN)C(=O)N[C@@H](CCN)C(=O)N[C@H]2CCNC(=O)[C@H]([C@@H](C)O)NC(=O)[C@H](CCN)NC(=O)[C@H](CCN)NC(=O)[C@H](CC(C)C)NC(=O)[C@@H](Cc3ccccc3)NC(=O)[C@H](CCN)NC2=O)NC(=O)[C@H](Cc2ccc(O)cc2)NC(=O)[C@H]([C@@H](C)O)NC(=O)[C@H](CC(C)C)NC(=O)[C@H](CCCNC(=N)N)NC(=O)[C@H]2CCCN2C(=O)[C@H](C(C)C)NC(=O)[C@H]([C@@H](C)O)NC(=O)[C@H](C(C)C)NC1=O [Ex. 115] (Ac-WCVTV[dP]RLTYC[Dab][Dab][Dab][Dab][Dab][dF]L[Dab][Dab]T; disulfide 2-11; lactam 15-C)	0.5 µg/mL	0.5 µg/mL	0.5 µg/mL	0.5 µg/mL	1 µg/mL	0.5 µg/mL	0.5 µg/mL	1%
CC(=O)N[C@@H](Cc1c[nH]c2ccccc12)C(=O)N[C@H]1CSSC[C@@H](C(=O)N[C@@H](CCCN)C(=O)N[C@H](C(=O)N[C@@H](CCN)C(=O)N[C@H]2CCNC(=O)[C@H]([C@@H](C)O)NC(=O)[C@H](CCN)NC(=O)[C@H](CCN)NC(=O)[C@H](CC(C)C)NC(=O)[C@@H](Cc3ccccc3)NC(=O)[C@H](CCN)NC2=O)[C@@H](C)O)NC(=O)[C@H](Cc2ccc(O)cc2)NC(=O)CNC(=O)[C@H](CC(C)C)NC(=O)[C@@H]2CCCN2C(=O)[C@H]2CCCN2C(=O)[C@H](CO)NC(=O)[C@H](CN)NC(=O)[C@H](C(C)(C)C)NC1=O [Ex. 117] (Ac-WC[Tle][Dap]S[dP]PLGYC[Orn]T[Dab][Dab][Dab][dF]L[Dab][Dab]T; disulfide 2-11; lactam 15-C)	0.125 µg/mL	0.25 µg/mL	0.25 µg/mL	0.5 µg/mL	2 µg/mL	1 µg/mL	2 µg/mL	<1%
CC(=O)N[C@@H](Cc1c[nH]c2ccccc12)C(=O)N[C@H]1CSSC[C@@H](C(=O)N[C@@H](CCCN)C(=O)N[C@H](C(=O)N[C@@H](CCN)C(=O)N[C@H]2CCNC(=O)[C@H]([C@@H](C)O)NC(=O)[C@H](CCN)NC(=O)[C@H](CCN)NC(=O)[C@H](CC(C)C)NC(=O)[C@@H](Cc3ccccc3)NC(=O)[C@H](CCN)NC2=O)[C@@H](C)O)NC(=O)[C@H](Cc2ccc(O)cc2)NC(=O)[C@H](CO)NC(=O)[C@H]([C@@H](C)O)NC(=O)[C@@H]2CCCN2C(=O)[C@H]2CCCN2C(=O)[C@H](CC(C)C)NC(=O)[C@H](C)NC(=O)[C@H](C(C)(C)C)NC1=O [Ex. 118] (Ac-WC[Tle]AL[dP]PTSYC[Orn]T[Dab][Dab][Dab][dF]L[Dab][Dab]T; disulfide 2-11; lactam 15-C)	0.25 µg/mL	0.25 µg/mL	0.5 µg/mL	0.5 µg/mL	0.5 µg/mL	0.5 µg/mL	2 µg/mL	2%
CC[C@H](C)[C@@H]1NC(=O)[C@@H]2CCCN2C(=O)[C@H]2CCCN2C(=O)[C@H](Cc2ccc(O)cc2)NC(=O)[C@@H](NC(=O)[C@@H](NC(=O)[C@H](CCN)NC(=O)[C@H](CC(C)C)NC(C)=O)C(C)C)CSSC[C@@H](C(=O)N[C@@H](Cc2ccc(O)cc2)C(=O)N[C@@H](CCN)C(=O)N[C@@H](CCCN)C(=O)N[C@H](CCN)C(=O)N[C@@H](CCN)C(=O)N[C@H]2CCNC(=O)[C@H]([C@@H](C)O)NC(=O)[C@H](CCN)NC(=O)[C@H](CCN)NC(=O)[C@H](CC(C)C)NC(=O)[C@@H](Cc3ccccc3)NC(=O)[C@H](CCN)NC2=O)NC1=O [Ex. 119] (Ac-L[Dab]VCY[dP]PICY[Dab][Orn][dDab][Dab][Dab][Dab][dF]L[Dab][Dab]T; disulfide 4-9; lactam 15-C)	0.5 µg/mL	0.5 µg/mL	1 µg/mL	0.25 µg/mL	4 µg/mL	1 µg/mL	0.25 µg/mL	0.5%
CC(=O)N[C@@H](Cc1c[nH]c2ccccc12)C(=O)N[C@@H](C)C(=O)N[C@H](C(=O)N[C@H]1CSSC[C@@H](C(=O)N[C@@H](Cc2ccc(O)cc2)C(=O)N[C@@H](C)C(=O)N[C@@H](CCCN)C(=O)N[C@H](CCN)C(=O)N[C@@H](CCN)C(=O)N[C@H]2CCNC(=O)[C@H]([C@@H](C)O)NC(=O)[C@H](CCN)NC(=O)[C@H](CCN)NC(=O)[C@H](CC(C)C)NC(=O)[C@@H](Cc3ccccc3)NC(=O)[C@H](CCN)NC2=O)NC(=O)[C@H](CC(C)C)NC(=O)[C@H](CCN)NC(=O)[C@H]2CCCN2C(=O)[C@H](C(C)C)NC1=O)C(C)C [Ex. 120] (Ac-WAVCV[dP][Dab]LCYA[Orn][dDab][Dab][Dab][Dab][dF]L[Dab][Dab]T; disulfide 4-9; lactam 15-C)	0.25 µg/mL	0.25 µg/mL	2 µg/mL	1 µg/mL	8 µg/mL	1 µg/mL	1 µg/mL	<1%
